Results from patent US4722927A, “Pyrimidine amides of oleic or linoleic acid, composition containing them and their use as inhibitors of acyl-CoA cholesterol acyltransferase” (Warner-Lambert Company, priority 1986, dated 1988).

Molecular target: T1, acyl-CoA:cholesterol acyltransferase (ACAT) (Oryctolagus cuniculus, UniProt G1SFD9)
T1 construct: a tissue preparation containing rabbit intestinal microsomes; from tissue; host or cells: rabbit intestinal microsomes
T1 sequence (G1SFD9 1-524): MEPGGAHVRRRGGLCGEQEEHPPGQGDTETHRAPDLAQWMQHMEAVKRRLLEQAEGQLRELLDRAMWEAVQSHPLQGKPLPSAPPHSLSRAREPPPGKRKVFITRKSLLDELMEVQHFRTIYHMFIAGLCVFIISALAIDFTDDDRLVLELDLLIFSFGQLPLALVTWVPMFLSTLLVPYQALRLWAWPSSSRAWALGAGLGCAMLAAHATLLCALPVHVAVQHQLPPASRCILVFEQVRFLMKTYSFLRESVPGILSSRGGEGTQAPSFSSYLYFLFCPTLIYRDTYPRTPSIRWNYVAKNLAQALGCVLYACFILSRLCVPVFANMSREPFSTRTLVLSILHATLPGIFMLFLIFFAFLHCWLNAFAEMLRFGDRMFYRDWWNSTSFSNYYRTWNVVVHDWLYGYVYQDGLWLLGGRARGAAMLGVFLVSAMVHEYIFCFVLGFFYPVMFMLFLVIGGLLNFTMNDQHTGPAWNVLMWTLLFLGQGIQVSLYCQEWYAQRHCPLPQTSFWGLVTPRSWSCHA
Test: In vitro inhibition of ACAT: radio-labeled cholesterol oleate formed from radio-labeled oleic acid in rabbit intestinal microsomes
Format: biochemical
Method: The ability of representative compounds of the present invention to inhibit ACAT was measured using an in vitro test more fully described in Field, F. J. and Salone, R. G., Biochemica et Biophysica 712: 557-570 (1982). The test assesses the ability of a test compound to inhibit the acylation of cholesterol by oleic acid by measuring the amount of radio-labeled cholesterol oleate formed from radio-labeled oleic acid in a tissue preparation containing rabbit intestinal microsomes.
The data appear in Table 1 where they are expressed as IC50 values; i.e. the concentration of test compound required to inhibit 50% […] of the enzyme.

Row | SMILES | IC50 [nM]
1 | CCCCCCCC/C=C\CCCCCCCC(=O)Nc1c(OC)ncnc1OC [(Z)-N-(4,6-dimethoxy-5-pyrimidinyl)-9-octadecenamide] | 200
2 | CCCCCCCC/C=C\CCCCCCCC(=O)Nc1c(OCC)ncnc1OCC [(Z)-N-(4,6-diethoxy-5-pyrimidinyl)-9-octadecenamide] | 530
